# Laboratory results as given in ChEMBL document CHEMBL1201862, “PubChem BioAssay data set” (2004).
#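 Results reflect a 48-hour exposure of cells in 96-well plates to compound at five concentrations. At the GI50, growth is halved.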 The source made the active and inactive calls. Cut-off read from the data, not from the text of the source: active = GI50 up to about 1.1 µM and inactive = higher.
# Assays:
# Experiment in all cases: inhibition of tumour cell growth, NCI panel, 48 h
# SF-268 = system: SF-268
# SNB-75 = system: SNB-75
# KM12 = system: KM12
# NCI-H23 = system: NCI-H23
# HCT-15 = system: HCT-15
# OVCAR-5 = system: OVCAR-5
# T47D = system: T47D
# COLO 205 = system: COLO 205
# MDA-N = system: MDA-N
# M14 = system: M14
# RPMI-8226 = system: RPMI-8226
# SNB-19 = system: SNB-19
# Hs-578T = system: Hs-578T
# 786-0 = system: 786-0
# HOP-92 = system: HOP-92
# HL-60 = system: HL-60
# U-251 = system: U-251
# SW-620 = system: SW-620
# OVCAR-4 = system: OVCAR-4
# SN12C = system: SN12C
# A549 = system: A549
# DU-145 = system: DU-145
# NCI/ADR-RES = system: NCI/ADR-RES
# HCT-116 = system: HCT-116
# OVCAR-3 = system: OVCAR-3
# UACC-257 = system: UACC-257
# LOX IMVI = system: LOX IMVI
# SR = system: SR
# HT-29 = system: HT-29
# NCI-H460 = system: NCI-H460
# MDA-MB-231 = system: MDA-MB-231
# IGROV-1 = system: IGROV-1
# A498 = system: A498
# MCF7 = system: MCF7
# MOLT-4 = system: MOLT-4
# HCC 2998 = system: HCC 2998
# RXF 393 = system: RXF 393
# CAKI-1 = system: CAKI-1
# SK-MEL-5 = system: SK-MEL-5
# SK-MEL-28 = system: SK-MEL-28
# UO-31 = system: UO-31
# OVCAR-8 = system: OVCAR-8
# Malme-3M = system: Malme-3M
# HOP-62 = system: HOP-62
# SF-295 = system: SF-295
# CCRF-CEM = system: CCRF-CEM
# PC-3 = system: PC-3
# NCI-H522 = system: NCI-H522
# NCI-H226 = system: NCI-H226
# SF-539 = system: SF-539
# SK-MEL-2 = system: SK-MEL-2
# SK-OV-3 = system: SK-OV-3
# MDA-MB-435 = system: MDA-MB-435
# K562 = system: K562
# ACHN = system: ACHN
# TK-10 = system: TK-10
# EKVX = system: EKVX
smiles,measurement,setting,value
CC(C)(C)C(=O)/C=C(\OB(F)F)C(C)(C)C,GI50,SF-268,> 100 µM (inactive)
same,GI50,SNB-75,> 100 µM (inactive)
same,GI50,KM12,> 100 µM (inactive)
same,GI50,NCI-H23,> 100 µM (inactive)
same,GI50,HCT-15,> 100 µM
same,GI50,OVCAR-5,> 100 µM (inactive)
same,GI50,T47D,> 100 µM (inactive)
same,GI50,COLO 205,> 100 µM (inactive)
same,GI50,MDA-N,> 100 µM (inactive)
same,GI50,M14,> 100 µM (inactive)
same,GI50,RPMI-8226,> 100 µM (inactive)
same,GI50,SNB-19,> 100 µM (inactive)
same,GI50,Hs-578T,> 100 µM (inactive)
same,GI50,786-0,> 100 µM (inactive)
same,GI50,HOP-92,> 100 µM (inactive)
same,GI50,HL-60,> 100 µM (inactive)
same,GI50,U-251,> 100 µM (inactive)
same,GI50,SW-620,> 100 µM (inactive)
same,GI50,OVCAR-4,> 100 µM (inactive)
same,GI50,SN12C,> 100 µM (inactive)
same,GI50,A549,> 100 µM (inactive)
same,GI50,DU-145,> 100 µM (inactive)
same,GI50,NCI/ADR-RES,> 100 µM (inactive)
same,GI50,HCT-116,> 100 µM (inactive)
same,GI50,OVCAR-3,> 100 µM (inactive)
same,GI50,UACC-257,> 100 µM (inactive)
same,GI50,LOX IMVI,> 100 µM (inactive)
same,GI50,SR,84.5 µM (inactive)
same,GI50,HT-29,> 100 µM (inactive)
same,GI50,NCI-H460,> 100 µM (inactive)
same,GI50,MDA-MB-231,> 100 µM (inactive)
same,GI50,IGROV-1,> 100 µM (inactive)
same,GI50,A498,> 100 µM (inactive)
same,GI50,MCF7,> 100 µM (inactive)
same,GI50,MOLT-4,> 100 µM (inactive)
same,GI50,HCC 2998,> 100 µM (inactive)
same,GI50,RXF 393,> 100 µM (inactive)
same,GI50,CAKI-1,> 100 µM (inactive)
same,GI50,SK-MEL-5,> 100 µM (inactive)
same,GI50,SK-MEL-28,> 100 µM (inactive)
same,GI50,UO-31,> 100 µM (inactive)
same,GI50,OVCAR-8,> 100 µM (inactive)
same,GI50,Malme-3M,> 100 µM (inactive)
same,GI50,HOP-62,> 100 µM (inactive)
same,GI50,SF-295,> 100 µM (inactive)
same,GI50,CCRF-CEM,> 100 µM (inactive)
same,GI50,PC-3,> 100 µM (inactive)
same,GI50,NCI-H522,> 100 µM (inactive)
same,GI50,NCI-H226,> 100 µM (inactive)
same,GI50,SF-539,> 100 µM (inactive)
same,GI50,SK-MEL-2,> 100 µM (inactive)
same,GI50,SK-OV-3,> 100 µM (inactive)
same,GI50,MDA-MB-435,> 100 µM (inactive)
same,GI50,K562,> 100 µM (inactive)
same,GI50,ACHN,> 100 µM (inactive)
same,GI50,TK-10,> 100 µM (inactive)
same,GI50,EKVX,> 100 µM (inactive)
